Measurements from patent publication US20180200233A1, “COMPOSITIONS FOR PREVENTING CANCERS ASSOCIATED WITH HUMAN PAPILLOMA VIRUSES” (Loma Linda University, priority 2015, published 2018).

Assays:
[1] = tested on: SCC 84 (#84) cells; assay: MTT cell viability, HPV- HNSCC cell line #84 with doxorubicin; assay type: cell-based; conditions: 2 μM doxorubicin; small molecules 0-12.5 μM
Procedure: (§1) FIGS. 8A-B includes graphs showing myricetin and spinacine (5) re-sensitized HPV^+, but not HPV^−, HNSCC cell lines to treatment with doxorubicin. One HPV^− (FIG. 8A; #84) and one HPV^+ (FIG. 8B; #90) head and neck cancer cell line (2×10^4 cells per well) were seeded into 96-well plates and allowed to incubate overnight, then cells were pre-treated with myricetin or spinacine (0-12.5 μM) for 4 h. 2 μM of doxorubicin was added and cells were allowed to incubate overnight. Cell viability was measured by MTT assay, and the viability of cells untreated with small molecules was set at 100%. Experiments were performed in triplicate, and error bars indicate the standard deviation.
(§2) The results described above indicate that myricetin and spinacine sensitize HPV^+ HNSCC cells to TRAIL-induced apoptosis. To determine whether this sensitization also occurs in the context of chemotherapeutic agents, several HNSCC cell lines were tested for their responses to combination treatments.
(§3) The extracellular domain of human TRAIL was cloned into a pTriEx expression plasmid containing N-terminal Hisx6 tag. His-TRAIL was expressed in the E. coli BL-21 pLys strain and purified as previously described. […] All experiments were repeated at least three times (three biological replicates, carried out on different days), with each experimental group measured in triplicate within each of these individual experiments. […]

[2] = molecular target: T1, GST-E6/His-caspase 8 (Human papillomavirus type 16, UniProt P03126); assay: AlphaScreen bead-based assay, GST-E6/His-caspase 8 binding; design: species or system HPV 16
T1 construct: made in house
Procedure: (§4) FIGS. 2A-C are graphs providing data regarding inhibition of protein-protein interactions by 3-(1H-indol-1yl)propan-1-amine (1), three benzimidazole derivatives (2-4), and spinacine (5). Compounds, at the indicated concentrations (1.4 μM to 3.2 mM) were tested using a bead-based screening assay for their ability to inhibit three different protein/protein interactions: (FIG. 2A) GST-E6/His-caspase 8; (FIG. 2B) GST-E6/HisE6AP; and (FIG. 2C) GST-caspase 8/His-caspase 8. Binding in the presence of 1.4 μM of the test compound was set at 100%. Experiments were performed in triplicate, and error bars indicate the standard deviation.
HPV E6 binds to caspase 8 (Garnett, T. O., M. Filippova, and P. J. Duerksen-Hughes, Accelerated degradation of FADD and procaspase 8 in cells expressing human papilloma virus 16 E6 impairs TRAIL-mediated apoptosis. Cell death and differentiation, 2006. 13(11): p. 1915-26), and myricetin can block the E6/caspase 8 interaction in vitro (Yuan, C. H., et al., Small molecule inhibitors of the HPV16-E6 interaction with caspase 8. Bioorganic & medicinal chemistry letters, 2012. 22(5): p. 2125-9). A bead-based assay based on AlphaScreen™ technology (Perkin-Elmer) is used to identify inhibitors of the E6/caspase 8 interaction (Yuan, C. H., et al., Small molecule inhibitors of the HPV16-E6 interaction with caspase 8. Bioorganic & medicinal chemistry letters, 2012. 22(5): p. 2125-9). The ActiProbe 2K (2,000 compounds) library was screened using the same approach. […] Analysis of the structures and physical/chemical characteristics of those molecules led to the selection of five additional compounds: 3-(1H-indol-1-yl)propan-1-amine methanesulfonate (1), benzimidazole (2), 1H-benzimidazole-1-methanol (3), 2-(methoxymethyl)-1H-benzimidazole (4), and spinacine (5) for further study (FIG. 1).
To determine the dose-responsiveness of these five compounds, variable concentrations of those small molecules were first tested for their ability to inhibit E6/caspase binding. […] These molecules, which had been selected for their ability to interfere with E6/caspase 8 binding, were then tested to determine if they could also affect other interactions of E6, such as its binding to E6-associated protein (E6AP). The E6/E6AP interaction is required for the E6-mediated acceleration of p53 degradation (Huibregtse, J. M., M. Scheffner, and P. M. Howley, A cellular protein mediates association of p53 with the E6 oncoprotein of human papillomavirus types 16 or 18. The EMBO journal, 1991. 10(13): p. 4129-35).
Alpha-Screen™ technology was used to assess the interactions between GST-E6, GST-caspase 8, His-E6AP, and His-caspase 8. Binding assays were performed in white 384-well plates (Perkin-Elmer) in a total volume of 25 μl as previously described (Tungteakkhun, S. S., et al., The interaction between human papillomavirus type 16 and FADD is mediated by a novel E6 binding domain. Journal of virology, 2008. 82(19): p. 9600-14). Briefly, 5 μl (50 ng) of GST-E6 and 5 μl (87.5 ng) of His-caspase 8 were included in each reaction mixture with 5 μl blocking buffer (0.5 mg BSA, 0.5% Tween 20 in PBS) in the absence or presence of 10 μM of each test chemical. […] The mixture was incubated in the dark at room temperature overnight, and the emitted signal was detected using the Envision Multilabel plate reader (Perkin-Elmer). In the presence of test chemicals, the binding affinity was calculated as a percentage of the binding in the presence of carrier only (DMSO).

[3] = tested on: UPCI-SCC90-UP-Clone 35 (#90) cells; assay: MTT cell viability, HPV+ HNSCC cell line #90 with doxorubicin; assay type: cell-based; conditions: 2 μM doxorubicin
Procedure: as §1, §2, §3

[4] = molecular target: T2, GST-caspase 8/His-caspase 8 (Homo sapiens, UniProt Q14790); assay: AlphaScreen counter-screen, GST-caspase 8/His-caspase 8 binding; conditions: for EC50 for GST-caspase 8/His-caspase 8 interaction: compounds tested 1.4 μM to 3.2 mM
T2 construct: pTriEx-Caspase-8 DED plasmids; fused on or other part: GST tag on one copy, His tag on the other (AlphaScreen bead handles)
Procedure: as §4
To ask whether this inhibition was specific, a counter-screening assay was employed the ability of candidates to inhibit the binding of GST-caspase 8 to His-caspase 8 was assessed; those that did were to be eliminated. In this counter-screening assay, the materials in each well were the same as in the primary screen, with the exception that GST-caspase 8 replaced GST-E6.
Alpha-Screen™ technology was used to assess the interactions between GST-E6, GST-caspase 8, His-E6AP, and His-caspase 8. Binding assays were performed in white 384-well plates (Perkin-Elmer) in a total volume of 25 μl as previously described (Tungteakkhun, S. S., et al., The interaction between human papillomavirus type 16 and FADD is mediated by a novel E6 binding domain. Journal of virology, 2008. 82(19): p. 9600-14). Briefly, 5 μl (50 ng) of GST-E6 and 5 μl (87.5 ng) of His-caspase 8 were included in each reaction mixture with 5 μl blocking buffer (0.5 mg BSA, 0.5% Tween 20 in PBS) in the absence or presence of 10 μM of each test chemical. Members of the library were present at […] in DMSO. After a one-hour incubation of the mixture at room temperature, 5 μl donor beads and 5 μl acceptor beads (Perkin-Elmer) were added to each well according to the manufacturer's protocol. The mixture was incubated in the dark at room temperature overnight, and the emitted signal was detected using the Envision Multilabel plate reader (Perkin-Elmer). In the presence of test chemicals, the binding affinity was calculated as a percentage of the binding in the presence of carrier only (DMSO).

T2 sequence (Q14790 whole entry, the tested form may be a part): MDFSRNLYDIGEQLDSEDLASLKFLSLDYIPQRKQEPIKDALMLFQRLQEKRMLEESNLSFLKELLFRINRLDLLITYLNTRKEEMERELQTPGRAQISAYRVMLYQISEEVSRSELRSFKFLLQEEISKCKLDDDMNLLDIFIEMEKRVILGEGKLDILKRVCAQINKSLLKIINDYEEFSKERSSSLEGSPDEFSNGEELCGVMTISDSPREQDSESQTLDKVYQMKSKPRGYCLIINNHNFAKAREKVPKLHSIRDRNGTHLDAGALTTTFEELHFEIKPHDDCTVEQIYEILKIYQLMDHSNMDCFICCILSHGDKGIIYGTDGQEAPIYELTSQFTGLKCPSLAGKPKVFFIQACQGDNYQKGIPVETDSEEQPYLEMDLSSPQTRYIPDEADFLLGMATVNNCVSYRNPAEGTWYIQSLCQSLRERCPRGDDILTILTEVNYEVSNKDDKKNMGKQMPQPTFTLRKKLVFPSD
T1 sequence (P03126 whole entry): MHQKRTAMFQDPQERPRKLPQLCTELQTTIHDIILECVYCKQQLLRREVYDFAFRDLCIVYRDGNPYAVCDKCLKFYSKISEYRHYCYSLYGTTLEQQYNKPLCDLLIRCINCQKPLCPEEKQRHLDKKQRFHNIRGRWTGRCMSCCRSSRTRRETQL

Row | SMILES | response of HPV- HNSCC cell line #84 to doxorubicin (in words) [1] | inhibition of E6/caspase 8 binding (in words) ([2]; FIG. 2A, primary screen at 10 μM) | cell death of HPV+ #90 cells with doxorubicin plus small molecule (in words) ([3]; small molecules 0-12.5 μM) | sensitization of #90 to doxorubicin ([3]; concentration of 12.5 μM) | inhibition of caspase 8/caspase 8 interaction (in words) ([4]; FIG. 2C) | EC50 for GST-caspase 8/His-caspase 8 interaction [4] | EC50 for GST-E6/His-caspase 8 interaction ([2]; bead-based assay, compounds tested 1.4 μM to 3.2 mM)
1 | O=c1c(O)c(-c2cc(O)c(O)c(O)c2)oc2cc(O)cc(O)c12 [Myricetin, reference compound] | resistant |  |  |  |  |  | 
2 | O=C(O)C1Cc2[nH]cnc2CN1 (stereo not drawn) [Compound 5, 4,5,6,7-Tetrahydro-1H-imidazo(4,5-c)pyridine-6-carboxylic acid] | resistant | dose-dependent inhibition | higher efficiency than did myricetin | up to 50% | did not significantly inhibit | No | 
3 | OCn1cnc2ccccc21 [Compound 3, 1H-benzimidazole-1-methanol] |  |  |  |  |  | No Inhibition | No Inhibition
